According to US20200405716A1, “HISTONE DEACETYLASE 6 (HDAC6) BIOMARKERS IN MULTIPLE MYELOMA” (Acetylon Pharmaceuticals, Inc., priority 2013, published 2020):

What was measured:
Format in all cases: cell-based, Human
[1] = test system: multiple myeloma cell line MM.1S; test: microRNA and mRNA array, treated MM.1S cells; details: 37° C., 6 hours
Text: The Human miRNome Complete RT^2 miRNA PCR Array profiles the expression of the 752 most abundantly expressed and best characterized microRNA (miRNA) sequences in the Human miRNA genome (miRNome), as annotated by the Sanger miRBase Release 14. The Illumina Gene Expression Beadchip content provides genome-wide transcriptional coverage of well-characterized genes, gene candidates, and splice variants. Each array on the BeadChip targets more than 47,000 probes derived from the National Center for Biotechnology Information Reference Sequence (NCBI) RefSeq Release 38 (Nov. 7, 2009) and other sources. Compound D was incubated with a multiple myeloma cell line (MM.1S or RPMI8226) or a stromal cell line (HS-5) at 37° C. for 6 hours. The concentration of Compound D was 2 uM. Alternatively, Compound A was incubated with the multiple myeloma cell line MM.1S at 37° C. for 6 hours. Total RNA was extracted from the treated cells (e.g., MM.1S cells and RPMI8226 cells) and analyzed using microRNA array. […] The numbers shown are normalized to the expression level of the corresponding biomarker in control cells. For example, the expression level of biomarker hsa-miR-346 was 0.26, which means that the expression level of this biomarker in treated MM.1S cells was 26% of the expression level of this biomarker in MM.1S control cells. Conversely, the expression level of biomarker hsa-miR-145 was 3.09, which means that the expression level of this biomarker in treated MM.1S cells was 3.09 fold of the expression level of this biomarker in MM.1S control cells.

[2] = test system: multiple myeloma cell line RPMI8226; test: microRNA and mRNA array, treated RPMI8226 cells; details: RPMI-8226 cells, Compound D 2 uM, 37° C., 6 hours
Text: (§1) The Human miRNome Complete RT^2 miRNA PCR Array profiles the expression of the 752 most abundantly expressed and best characterized microRNA (miRNA) sequences in the Human miRNA genome (miRNome), as annotated by the Sanger miRBase Release 14.
(§2) The Illumina Gene Expression Beadchip content provides genome-wide transcriptional coverage of well-characterized genes, gene candidates, and splice variants. Each array on the BeadChip targets more than 47,000 probes derived from the National Center for Biotechnology Information Reference Sequence (NCBI) RefSeq Release 38 (Nov. 7, 2009) and other sources.
(§3) Compound D was incubated with a multiple myeloma cell line (MM.1S or RPMI8226) or a stromal cell line (HS-5) at 37° C. for 6 hours. The concentration of Compound D was 2 uM.
(§4) Total RNA was extracted from the treated cells (e.g., MM.1S cells and RPMI8226 cells) and analyzed using microRNA array.
(§5) The numbers shown are normalized to the expression level of the corresponding biomarker in control cells. For example, the expression level of biomarker hsa-miR-346 was 0.26, which means that the expression level of this biomarker in treated MM.1S cells was 26% of the expression level of this biomarker in MM.1S control cells. Conversely, the expression level of biomarker hsa-miR-145 was 3.09, which means that the expression level of this biomarker in treated MM.1S cells was 3.09 fold of the expression level of this biomarker in MM.1S control cells.

stromal cell line HS-5 = test: microRNA and mRNA array, treated stromal HS-5 cells; details: Compound D 2 uM, 37° C., 6 hours
Text: as §1, §2, §3, §4, §5

[3] = Compound A (concentration not given)

SMILES: O=C(CCCCCCNC(=O)c1cnc(N(c2ccccc2)c2ccccc2)nc1)NO [Compound A, 2-(diphenylamino)-N-(7-(hydroxyamino)-7-oxoheptyl) pyrimidine-5-carboxamide]
- expression of small non-coding RNA SEQ ID NO: 26 normalized to control cells [1, 3]: 0.74
- expression of small non-coding RNA SEQ ID NO: 27 normalized to control cells [1, 3]: 0.74

SMILES: O=C(NO)c1cnc(NC2(c3ccccc3)CC2)nc1 [Compound D, N-hydroxy-2-((1-phenylcyclopropyl)amino)pyrimidine-5-carboxamide]
- expression of miRNA SEQ ID NO: 2 normalized to control cells [2]: 0.09
- expression of miRNA SEQ ID NO: 6 normalized to control cells [2]: 0.28
- expression of miRNA SEQ ID NO: 7 normalized to control cells [2]: 0.25
- expression of miRNA SEQ ID NO: 8 normalized to control cells [2]: 0.33
- expression of miRNA SEQ ID NO: 9 normalized to control cells [2]: 0.24
- expression of miRNA SEQ ID NO: 17 normalized to control cells [2]: 3.22
- expression of miRNA SEQ ID NO: 18 normalized to control cells [2]: 3.31
- expression of miRNA SEQ ID NO: 1 (hsa-miR-346) normalized to control cells ([1]; Compound D 2 uM): 0.26
- expression of miRNA SEQ ID NO: 2 normalized to control cells ([1]; Compound D 2 uM): 0.33
- expression of miRNA SEQ ID NO: 3 normalized to control cells ([1]; Compound D 2 uM): 0.23
- expression of miRNA SEQ ID NO: 4 normalized to control cells ([1]; Compound D 2 uM): 0.27
- expression of miRNA SEQ ID NO: 5 normalized to control cells ([1]; Compound D 2 uM): 0.31
- expression of miRNA SEQ ID NO: 12 (hsa-miR-145) normalized to control cells ([1]; Compound D 2 uM): 3.09
- expression of miRNA SEQ ID NO: 13 normalized to control cells ([1]; Compound D 2 uM): 3.53
- expression of miRNA SEQ ID NO: 14 normalized to control cells ([1]; Compound D 2 uM): 3.19
- expression of miRNA SEQ ID NO: 15 normalized to control cells ([1]; Compound D 2 uM): 3.29
- expression of miRNA SEQ ID NO: 16 normalized to control cells ([1]; Compound D 2 uM): 4.68
- expression of small non-coding RNA SEQ ID NO: 26 normalized to control cells ([1]; Compound D 2 uM): 0.46
- expression of small non-coding RNA SEQ ID NO: 27 normalized to control cells ([1]; Compound D 2 uM): 0.45
- HIF-1a expression level in treated cells as % of the expression level in control cells (stromal cell line HS-5): 49%
- PTPRU expression level in treated cells, fold of the expression level in control cells (stromal cell line HS-5): 2.52 fold
- expression of mRNA SEQ ID NO: 24 (HIF-1a) normalized to control cells (stromal cell line HS-5): 0.49
- expression of mRNA SEQ ID NO: 25 (PTPRU) normalized to control cells (stromal cell line HS-5): 2.52
- expression of miRNA SEQ ID NO: 10 normalized to control cells (stromal cell line HS-5): 0.26
- expression of miRNA SEQ ID NO: 11 normalized to control cells (stromal cell line HS-5): 0.15
- expression of miRNA SEQ ID NO: 19 normalized to control cells (stromal cell line HS-5): 6.64
- expression of miRNA SEQ ID NO: 20 normalized to control cells (stromal cell line HS-5): 21.71
- expression of miRNA SEQ ID NO: 21 normalized to control cells (stromal cell line HS-5): 54.35
- expression of miRNA SEQ ID NO: 22 normalized to control cells (stromal cell line HS-5): 5.95
- expression of miRNA SEQ ID NO: 23 normalized to control cells (stromal cell line HS-5): 3.52
